Test results from patent US8546392B2, “17Beta-hydroxysteroid dehydrogenase type 1 inhibitors for the treatment of hormone-related diseases” (Universitaet des Saarlandes, priority 2008, dated 2013).

Tests used:
17β-HSD2 = 17β-HSD2 (Homo sapiens (Human), UniProt P37059); assay: 17β-HSD2 test assay (recombinant protein from Sf9 insect cells, 3H-estradiol/NAD+); format: biochemical; settings: for inhibition at 0.1 µM: read-out: HSD2 100 nM (% inhibition), inhibitor 100 nM; for inhibition at 1 µM: read-out: HSD2 1 μM (% inhibition), inhibitor 1 μM
Chain of 17β-HSD2 (P37059 whole entry): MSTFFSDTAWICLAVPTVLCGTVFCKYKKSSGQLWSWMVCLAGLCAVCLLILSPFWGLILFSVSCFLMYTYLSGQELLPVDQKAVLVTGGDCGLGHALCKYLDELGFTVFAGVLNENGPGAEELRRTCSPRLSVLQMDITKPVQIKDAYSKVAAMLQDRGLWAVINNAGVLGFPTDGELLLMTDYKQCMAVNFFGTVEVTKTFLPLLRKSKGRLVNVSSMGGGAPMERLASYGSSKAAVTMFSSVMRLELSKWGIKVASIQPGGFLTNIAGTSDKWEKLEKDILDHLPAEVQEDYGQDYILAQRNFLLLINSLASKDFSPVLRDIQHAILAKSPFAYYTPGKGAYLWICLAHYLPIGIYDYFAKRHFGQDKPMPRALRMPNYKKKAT
Method: Recombinant protein obtained from Sf9 insect cells (0.1 μg/ml) is incubated with 20 mM KH2PO4, pH 7.4, 30 nM ^3H-estradiol and 1 mM NAD+ for 30 min at RT in the presence of the potential inhibitor in a concentration of 1 μM or 100 nM. The stock solutions of the compounds are prepared in DMSO so that the final concentration of DMSO in the sample is 1%. After the prescribed incubation time, the reaction is quenched by adding trichloroacetic acid (10% final concentration). The samples are centrifuged in microtitration plates at 400 rpm for 10 min, and the supernatants are charged on a reversed-phase HPLC equipped with a Waters Symmetrie C18 column and
Waters Sentry Guard column. The isocratic HPLC run is performed at RT with a flow rate of 1 ml/min and acetonitrile/water 48:52 as the eluent. The radioactivity was measured by means of a Packard Flow Scintillation Analyzer. The percent inhibition was calculated by means of the formulas stated above.

17β-HSD1 = 17β-HSD1 (Homo sapiens (Human), UniProt P14061); assay: 17β-HSD1 test assay (recombinant protein from Sf9 insect cells, 3H-estrone/NADPH); format: biochemical; settings: for inhibition at 1 µM: read-out: HSD 1 μM (% inhibition of HSD1); for inhibition at 0.1 µM: read-out: HSD1 100 nM (% inhibition)
Chain of 17β-HSD1 (P14061 whole entry): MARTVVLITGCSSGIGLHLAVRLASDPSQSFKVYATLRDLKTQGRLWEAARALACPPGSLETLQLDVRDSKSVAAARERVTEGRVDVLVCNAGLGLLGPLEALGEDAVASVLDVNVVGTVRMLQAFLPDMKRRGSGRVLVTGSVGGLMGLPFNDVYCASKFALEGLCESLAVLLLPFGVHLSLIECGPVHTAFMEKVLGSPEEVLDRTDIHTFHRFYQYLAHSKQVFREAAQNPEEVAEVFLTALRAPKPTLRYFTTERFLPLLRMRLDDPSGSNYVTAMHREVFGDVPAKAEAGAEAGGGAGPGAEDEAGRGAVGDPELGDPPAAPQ
Method: Recombinant protein obtained from Sf9 insect cells (0.1 μg/ml) is incubated with 20 mM KH2PO4, pH 7.4, 30 nM ^3H-estrone and 1 mM NADPH for 30 min at RT in the presence of the potential inhibitor in a concentration of 1 μM or 100 nM. The stock solutions of the compounds are prepared in DMSO (dimethylsulfoxide) so that the final concentration of DMSO in the sample is 1%. After the prescribed incubation time, the reaction is quenched by adding trichloroacetic acid (10% final concentration). The samples are centrifuged in microtitration plates at 400 rpm for 10 min, and the supernatants are charged on a reversed-phase HPLC equipped with a Waters Symmetrie C18 column and Waters Sentry Guard column. The isocratic HPLC run is performed at RT with a flow rate of 1 ml/min and acetonitrile/water 48:52 as the eluent. The radioactivity was measured by means of a Packard Flow Scintillation Analyzer. […]

Row | Compound | inhibition at 0.1 µM (17β-HSD2) [%] | inhibition at 1 µM (17β-HSD2) [%] | inhibition at 1 µM (17β-HSD1; inhibitor 1 μM) [%] | inhibition at 0.1 µM (17β-HSD1; inhibitor 100 nM) [%] | HSD1 100 nM (% inhibition) (17β-HSD1; inhibitor 100 nM) [%] | HSD 1 μM (% inhibition of HSD1) (17β-HSD1; inhibitor 1 μM) [%]
1 | CNC(=O)/C=C/c1c(O)ccc2cc(-c3cccc(O)c3)ccc12 [Compound 39, (E)-3-(2-Hydroxy-6-(3-hydroxyphenyl)naphthalene-1-yl)-N-methylacrylamide] | 33.9 | 73.2 | 57.6 | 19.2 |  | 
2 | O=C(/C=C/c1c(O)ccc2cc(-c3cccc(O)c3)ccc12)Nc1ccccc1 [Compound 40, (E)-3-(2-Hydroxy-6-(3-hydroxyphenyl)naphthalene-1-yl)-N-phenylacrylamide] | 28.1 | 76.9 | 60.4 | < 10 |  | 
3 | CNC(=O)c1c(O)ccc2cc(-c3cccc(O)c3)ccc12 [Compound 41, 2-Hydroxy-6-(3-hydroxyphenyl)-N-methyl-1-naphthamide] | < 10 | 21.6 | 76.3 | 21.8 |  | 
4 | O=C(Nc1cccc(O)c1)c1c(O)ccc2cc(-c3cccc(O)c3)ccc12 [Compound 43, 2-Hydroxy-N,6-bis(3-hydroxyphenyl)-1-naphthamide] | < 10 | < 10 | 69.9 | 20.5 |  | 
5 | Cc1nnc(NC(=O)c2c(O)ccc3cc(-c4cccc(O)c4)ccc23)s1 [Compound 48, 2-Hydroxy-6-(3-hydroxyphenyl)-N-(5-methyl-1,3,4-thiadiazol-2-yl)-1-naphthamide] |  | 24 | 68 |  |  | 
6 | N#Cc1cc(-c2cccc(O)c2)cc2ccc(O)cc12 [Compound 53, 7-Hydroxy-3-(3-hydroxyphenyl)-1-naphthonitrile] | 18 | 67 | 74.4 | 32.3 |  | 
7 | CNC(=O)CCc1c(O)ccc2cc(-c3cccc(O)c3)ccc12 [Compound 55, 3-(2-Hydroxy-6-(3-hydroxyphenyl)naphthalene-1-yl)-N-methylpropanamide] | < 10 | 35.8 | 80 | < 10 |  | 
8 | Oc1cccc(-c2ccc3c(-c4cncnc4)c(O)ccc3c2)c1 [Compound 61, 6-(3-Hydroxyphenyl)-1-(pyrimidin-5-yl)naphthalene-2-ol] | 15.5 | 51.7 | 22.1 | < 10 |  | 
9 | O=C(O)c1cccc(-c2c(O)ccc3cc(-c4cccc(O)c4)ccc23)c1 [Compound 63, 3-(2-Hydroxy-6-(3-hydroxyphenyl)naphthalene-1-yl)benzoic acid] | < 10 | 34.2 | 80 | 44.7 |  | 
10 | Oc1cccc(-c2ccc3c(-c4ccc(N5CCOCC5)cc4)c(O)ccc3c2)c1 [Compound 65, 6-(3-Hydroxyphenyl)-1-(4-morpholinophenyl)naphthalene-2-ol] | 12.4 | 31.9 | 64.9 | 31.9 |  | 
11 | O=S(=O)(Nc1cccc(-c2c(O)ccc3cc(-c4cccc(O)c4)ccc23)c1)c1ccc(Cl)s1 [Compound 74, 5-chloro-N-{3-[2-hydroxy-6-(3-hydroxyphenyl)-1-naphthyl]-phenyl}thiophene-2-sulfonamide] |  |  | 78 | 46.4 |  | 
12 | N#Cc1ccccc1S(=O)(=O)Nc1cccc(-c2c(O)ccc3cc(-c4cccc(O)c4)ccc23)c1 [Compound 76, 2-cyano-N-{3-[2-hydroxy-6-(3-hydroxyphenyl)-1-naphthyl]phenyl}benzenesulfonamide] |  |  | 79.7 | 62.1 |  | 
13 | O=[N+]([O-])c1cc(S(=O)(=O)Nc2cccc(-c3c(O)ccc4cc(-c5cccc(O)c5)ccc34)c2)ccc1Cl [Compound 77, 4-chloro-N-{3-[2-hydroxy-6-(3-hydroxyphenyl)-1-naphthyl]phenyl}-3-nitrobenzenesulfonamide] |  |  | 79.9 | 73.2 |  | 
14 | N-{3-[2-hydroxy-6-(3-hydroxyphenyl)-1-naphthyl]phenyl-3-nitrobenzenesulfonamide [Compound 75] |  |  |  |  | 72.8 | 78.9

Results, then the compound that gave them:

Row | inhibition at 0.1 µM (17β-HSD2) [%] | inhibition at 1 µM (17β-HSD2) [%] | inhibition at 1 µM (17β-HSD1; inhibitor 1 μM) [%] | inhibition at 0.1 µM (17β-HSD1; inhibitor 100 nM) [%] | HSD1 100 nM (% inhibition) (17β-HSD1; inhibitor 100 nM) [%] | HSD 1 μM (% inhibition of HSD1) (17β-HSD1; inhibitor 1 μM) [%] | Compound
15 |  |  | 79.2 | 63.7 |  |  | COC(=O)c1csc(S(=O)(=O)Nc2cccc(-c3c(O)ccc4cc(-c5cccc(O)c5)ccc34)c2)c1OC [Compound 78, methyl 5-{3-[2-hydroxy-6-(3-hydroxyphenyl)-1-naphthyl]phenylsulfamoyl}-4-methoxythiophene-3-carboxylate]
16 |  |  | 80.2 | 73.8 |  |  | CC(=O)Nc1ccc(S(=O)(=O)Nc2cccc(-c3c(O)ccc4cc(-c5cccc(O)c5)ccc34)c2)cc1 [Compound 79, N-(4-{3-[2-hydroxy-6-(3-hydroxyphenyl)-1-naphthyl]phenylsulfamoyl}phenyl)acetamide]
17 |  |  | 79.4 | 64.7 |  |  | CSc1nccc(-c2ccc(S(=O)(=O)Nc3cccc(-c4c(O)ccc5cc(-c6cccc(O)c6)ccc45)c3)s2)n1 [Compound 80, N-{3-[2-hydroxy-6-(3-hydroxyphenyl)-1-naphthyl]phenyl}-5-[2-(methylsulfanyl)pyrimidin-4-yl]thiophene-2-sulfonamide]
18 |  |  | 82.9 | 71.5 |  |  | O=[N+]([O-])c1ccc(S(=O)(=O)Nc2cccc(-c3c(O)ccc4cc(-c5cccc(O)c5)ccc34)c2)cc1 [Compound 81, N-{3-[2-hydroxy-6-(3-hydroxyphenyl)-1-naphthyl]phenyl}-4-nitrobenzenesulfonamide]
19 |  |  | 78.4 | 40.5 |  |  | O=S(=O)(Nc1cccc(-c2c(O)ccc3cc(-c4cccc(O)c4)ccc23)c1)c1ccc(Br)cc1OC(F)(F)F [Compound 82, 4-bromo-N-{3-[2-hydroxy-6-(3-hydroxyphenyl)-1-naphthyl]phenyl}-2-(trifluoromethoxy)benzenesulfonamide]
20 |  |  | 78.1 | 49.8 |  |  | O=[N+]([O-])c1cc(C(F)(F)F)ccc1S(=O)(=O)Nc1cccc(-c2c(O)ccc3cc(-c4cccc(O)c4)ccc23)c1 [Compound 83, 2-nitro-N-{3-[2-hydroxy-6-(3-hydroxyphenyl)-1-naphthyl]phenyl}-4-(trifluoromethyl)benzenesulfonamide]
21 |  |  | 77.7 | 54.5 |  |  | O=S(=O)(Nc1cccc(-c2c(O)ccc3cc(-c4cccc(O)c4)ccc23)c1)c1cc(Br)c(Br)s1 [Compound 85, 4,5-dibromo-N-{3-[2-hydroxy-6-(3-hydroxyphenyl)-1-naphthyl]phenyl}thiophene-2-sulfonamide]
22 |  |  | 80.9 | 71.6 |  |  | O=S(=O)(Nc1cccc(-c2c(O)ccc3cc(-c4cccc(O)c4)ccc23)c1)c1ccc2ncsc2c1 [Compound 86, N-{3-[2-hydroxy-6-(3-hydroxyphenyl)-1-naphthyl]-phenyl}-1,3-benzothiazole-6-sulfonamide]
23 |  |  | 80.6 | 71.7 |  |  | O=S(=O)(Nc1cccc(-c2c(O)ccc3cc(-c4cccc(O)c4)ccc23)c1)c1cccs1 [Compound 87, N-{3-[2-hydroxy-6-(3-hydroxyphenyl)-1-naphthyl]phenyl}thiophene-2-sulfonamide]
24 |  |  | 82.4 | 76.8 |  |  | O=C(NCCc1ccc(S(=O)(=O)Nc2cccc(-c3c(O)ccc4cc(-c5cccc(O)c5)ccc34)c2)cc1)C(F)(F)F [Compound 88, 2,2,2-trifluoro-N-[2-(4-{3-[2-hydroxy-6-(3-hydroxyphenyl)-1-naphthyl]phenylsulfamoyl}phenyl)ethyl]acetamide]
25 |  |  | 78.2 | 68 |  |  | O=S(=O)(Nc1cccc(-c2c(O)ccc3cc(-c4cccc(O)c4)ccc23)c1)c1cc(F)c(Br)cc1F [Compound 89, 4-bromo-2,5-difluoro-N-{3-[2-hydroxy-6-(3-hydroxyphenyl)-1-naphthyl]phenyl}benzenesulfonamide]
26 |  |  | 77.3 | 16.5 |  |  | CS(=O)(=O)NC(=O)c1cccc(-c2c(O)ccc3cc(-c4cccc(O)c4)ccc23)c1 [Compound 90, 3-(2-Hydroxy-6-(3-hydroxyphenyl)naphthalene-1-yl)-N-(methylsulfonyl)-benzamide]
27 |  |  | 33 |  |  |  | O=S(=O)(c1ccccc1)c1c(O)ccc2cc(-c3cccc(O)c3)ccc12 [Compound 91, 6-(3-Hydroxyphenyl)-1-(phenylsulfonyl)-2-naphthol]
28 |  |  | 75 |  |  |  | Cc1ccc(S(=O)(=O)c2c(O)ccc3cc(-c4cccc(O)c4)ccc23)cc1 [Compound 92]
